Experimental data from PubChem BioAssay (NCI).
Values joined by “and” are separate entries in the source; they are usually repeats but may differ in a detail not shown here. Identical values can stand only once.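 Following 48 hours of exposure in 96-well plates, responses at five concentrations were used to interpolate endpoints linearly. GI50: concentration for 50% inhibition of growth. TGI: total growth inhibition.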

Experiments:
Assay in all cases: NCI anticancer screen, dose series, 48 h
EKVX NSCLC = tested on: EKVX NSCLC
PC-3 prostate = tested on: PC-3 prostate
HCC-2998 colon = tested on: HCC-2998 colon
NCI-H226 lung = tested on: NCI-H226 lung
MALME-3M melanoma = tested on: MALME-3M melanoma
OVCAR-5 ovarian = tested on: OVCAR-5 ovarian
NCI-H522 lung = tested on: NCI-H522 lung
A498 renal = tested on: A498 renal
COLO 205 colon = tested on: COLO 205 colon
SK-MEL-2 melanoma = tested on: SK-MEL-2 melanoma

Row | Structure (SMILES) | GI50 (EKVX NSCLC) | TGI (EKVX NSCLC) | GI50 (PC-3 prostate) | TGI (PC-3 prostate) | GI50 (HCC-2998 colon) [µM] | TGI (HCC-2998 colon) | GI50 (NCI-H226 lung) | TGI (NCI-H226 lung) | GI50 (MALME-3M melanoma) | TGI (MALME-3M melanoma) | GI50 (OVCAR-5 ovarian) | TGI (OVCAR-5 ovarian) | GI50 (NCI-H522 lung) | TGI (NCI-H522 lung) | GI50 (A498 renal) | TGI (A498 renal) | GI50 (COLO 205 colon) | TGI (COLO 205 colon) | GI50 (SK-MEL-2 melanoma) | TGI (SK-MEL-2 melanoma)
1 | COc1cc2nc(-c3ccc(C(F)(F)F)cc3)cc(OCCCN3CCCCC3)c2cc1OC | 0.803 µM | 14.6 µM | 1.34 µM | 11.2 µM | 1.28 | 5.72 µM | 0.37 µM | 3.51 µM | 1.26 µM | 4.03 µM | 0.71 µM | 16.5 µM | 2.44 µM | 21.7 µM | 1.85 µM | 5.16 µM | 0.406 µM | 1.94 µM | 2.64 µM | 8.89 µM
2 | C=C1C(=O)O[C@H]2C[C@@]3(C)[C@H](O)CCC(=C)[C@@H]3[C@@H](OC(C)=O)[C@H]12 |  | 38.1 µM |  | 37.3 µM |  | 30.3 µM |  | 49.2 µM |  | 3.52 µM |  | 25.3 µM |  | 4.13 µM |  | 44.2 µM |  | 7.06 µM |  | 37.6 µM
3 | CC(C)(C)NC(=O)[C@H]1C[C@H]2CCCC[C@H]2CN1C[C@@H](O)[C@H](Cc1ccccc1)NC(=O)[C@H](CC(N)=O)NC(=O)c1ccc2ccccc2n1 | 3.57 µM | > 59.9 µM | 7.17 µM | 26.8 µM | 13.4 | 26.8 µM | 15.4 µM | 32.8 µM | 17.7 µM | 37.8 µM | 16.7 µM | 30.5 µM | 15.6 µM | 33.8 µM | 15.7 µM | 32.1 µM | 10.5 µM | 29.8 µM | 22.7 µM | > 65.7 µM
4 | CN(C)C(=O)O[C@@H]1CN[C@@H](C#Cc2cc3ncnc(Nc4ccc(OCc5cccc(F)c5)c(Cl)c4)c3s2)C1 | 5.14 µM | > 23.2 µM | 8.53 µM | > 25 µM | 14.1 | > 25 µM | 9.22 µM | > 18.4 µM | 9.41 µM | > 25 µM | > 25 µM | > 25 µM | 2.14 µM | > 10.5 µM | 5.65 µM | > 19.7 µM | > 25 µM | > 25 µM | > 25 µM | > 25 µM
5 | Cc1c2ccc(N(C)c3ccnc(Nc4cccc(S(N)(=O)=O)c4)n3)cc2nn1C | 11.8 µM | > 25 µM | 9.23 µM | > 25 µM | 18.9 | > 25 µM | 6.2 µM | > 25 µM | 5.74 µM | 20.2 µM | 11.4 µM | > 25 µM | 6.09 µM | 23.7 µM | 1.89 µM | > 17.9 µM | 12.5 µM | > 25 µM | 7.06 µM | 16.7 µM
6 | NC(=O)c1ccc(C2C3=C(CCCC3=O)OC3=C2C(=O)c2ccccc2C3=O)cc1 (stereo not drawn) | 0.687 µM | 2.83 µM | 0.285 µM | 1.86 µM | 2.06 | 4.29 µM | 1.89 µM | 3.96 µM | 0.332 µM | 0.986 µM | 1.91 µM | 3.92 µM | 0.307 µM | 0.757 µM | 1.36 µM | 2.69 µM | 0.351 µM | 1.41 µM | 0.576 µM | 2.06 µM
7 | CSc1ccc(/C=C2\C=C(CC(=O)NCc3ccc(C(=O)c4ccccc4)cc3)c3cc(F)ccc32)cc1 | 0.423 µM | > 100 µM | 0.0473 µM | 13.1 µM | 0.0544 | 0.756 µM | 0.0951 µM | 0.903 µM | 0.215 µM | 44.7 µM | 0.0618 µM | 24.9 µM | 0.0287 µM | 0.211 µM | 0.0364 µM | 0.902 µM | 0.19 µM | 0.431 µM | 0.049 µM | 7.04 µM
8 | CNC(=S)N/N=C/c1ccc([N+](=O)[O-])s1 |  | > 10 µM |  | > 10 µM |  | > 10 µM |  | > 10 µM |  | > 10 µM |  | > 10 µM |  | > 10 µM |  | > 10 µM |  | 8.55 µM |  | > 10 µM
9 | COc1cc(S(C)(=O)=O)ccc1Nc1nc2ccc(-c3ccc(NC(=O)[C@H](C)c4ccc(F)cc4)cc3)cn2n1 | > 100 µM | > 100 µM | 4.29 µM | > 100 µM | > 100 | > 100 µM | > 100 µM | > 100 µM | > 100 µM | > 100 µM | > 100 µM | > 100 µM | > 100 µM | > 100 µM | > 100 µM | > 100 µM | 0.0838 µM | > 100 µM | > 100 µM | > 100 µM
10 | Cn1cc(CNCC2CCN(c3ncc(C(=O)NO)cn3)CC2)c2ccccc21 | 0.0255 µM | 23.4 µM | 0.012 µM | 18 µM | 0.0141 | 0.0837 µM | 0.0351 µM | 1.09 µM | < 0.01 µM | 15.2 µM | < 0.01 µM | 0.598 µM | < 0.01 µM | 0.0615 µM | 0.0102 µM | 0.0274 µM | < 0.0104 µM | 0.107 µM | < 0.0151 µM | 0.334 µM
11 | CCN(CC)CCNc1n[n+]([O-])c2ccccc2[n+]1[O-] |  | 44 µM |  | > 100 µM |  | 6.12 µM and 14.5 µM |  | 23.7 µM and 29.9 µM |  | 20.7 µM and 20.8 µM |  | 38.6 µM and 35.8 µM | 3.85 µM and 7.95 µM | 17.3 µM and 22.9 µM | 5.47 µM and 2.54 µM | 9.39 µM and 9.85 µM |  | 19.9 µM and 26 µM | 2.34 µM and 5.13 µM | 13.2 µM and 19.1 µM
12 | O=Cc1ccc(-c2cccs2)s1 |  | > 96.6 µM |  | > 100 µM |  | > 100 µM |  | 4.85 µM |  | > 100 µM |  | 69.7 µM |  | > 100 µM |  | 5.21 µM |  | 54.8 µM |  | > 100 µM
13 | O=C1CCCN1CC#CCN1CCCC1 | > 100 µM | > 100 µM | > 100 µM | > 100 µM | > 100 | > 100 µM | > 100 µM | > 100 µM | > 100 µM | > 100 µM | > 100 µM | > 100 µM | > 100 µM | > 100 µM | > 100 µM | > 100 µM | > 100 µM | > 100 µM | > 100 µM | > 100 µM
14 | CCN1CSC(=S)N(CC)C1 |  | > 100 µM |  | > 100 µM |  | > 100 µM |  | > 100 µM |  | > 100 µM |  | > 100 µM |  | > 100 µM |  | > 100 µM |  | > 100 µM |  | > 100 µM
15 | Cc1cc(=O)oc2cc(O)c(CN(C)CC(=O)O)cc12 |  | > 100 µM |  | > 100 µM |  | > 100 µM |  | > 100 µM |  | > 100 µM |  | > 100 µM |  | > 100 µM |  | > 100 µM |  | > 100 µM |  | > 100 µM
16 | CN[C@@H]1C[C@H]2O[C@@](C)([C@@H]1OC)n1c3ccccc3c3c4c(c5c6ccccc6n2c5c31)C(=O)N[C@@H]4O |  | 0.232 µM and 2.12 µM |  | 0.258 µM and 0.13 µM | 0.0534 | 0.3 µM and 2.69 µM | 0.0492 µM | 0.3 µM and 0.477 µM | 0.0154 µM | 0.0589 µM and 0.461 µM | 0.0226 µM | 0.298 µM and 0.24 µM |  | 0.197 µM and 0.382 µM | 0.0053 µM | 0.0232 µM and 0.0257 µM |  | 0.691 µM | 0.0348 µM | 0.245 µM and 0.123 µM
17 | CC[C@@]1(O)C(=O)OCc2c1cc1n(c2=O)Cc2cc3cc(N)ccc3nc2-1 | 0.304 µM and 0.348 µM | 9.06 µM and 44 µM | 0.141 µM and 0.0842 µM |  | 0.0707 | 0.495 µM and 1.36 µM | 0.00742 µM and 0.0143 µM | 0.111 µM and 0.108 µM | 0.101 µM and 0.037 µM | 1.21 µM and 0.478 µM | 0.0195 µM and 0.11 µM | 0.109 µM and 0.627 µM | 0.0261 µM and < 0.0112 µM | 0.721 µM and 0.182 µM | 0.0277 µM and 0.0376 µM | 0.143 µM and 0.152 µM | 0.0618 µM and 0.102 µM | 2.86 µM and 1.26 µM | 0.528 µM and 0.311 µM | 1.58 µM
